According to PMC11707430, “Novel antibiotics against Staphylococcus aureus without detectable resistance by targeting proton motive force and FtsH” (MedComm, 2025):
In brackets after ≈: the same amount, converted by molar mass.

Legend:
[1] = test system: S. aureus; test: Peritonitis-sepsis model; format: in vivo, ICR mice; conditions: single use, i.p., 24 h postinfection, vs vehicle
Method: Peritonitis-sepsis model. Six to seven-week-old female ICR mice were included. […] Mice were injected with 500 μL of the suspension in the presence of 5% mucin by i.p.. An hour post-infection, the mice were administered with: 1) EL+ethanol, 2) […]-0546 (30 mg/kg), and 3) STK848198 (30 mg/kg) alone or in combination with ampicillin (AMP, 25 mg/kg)^38 or amikacin (AMK, 25 mg/kg).

[2] = test system: S. aureus ATCC 43300; test: Periprosthetic joint infection (PJI) model; format: in vivo, ICR mice; conditions: day 7, alone or in combination, i.p.
[3] = test system: S. aureus; test: MIC determination by microbroth dilution; format: cell-based, Staphylococcus aureus; conditions: for antimicrobial activity (in words): structure-activity relationship of C218-0546 analogs (Figure S1)
Method: Minimal inhibitory concentration (MIC) determination. The detection of MIC was performed by the microbroth dilution method with reference to the previously report by Wang et al^2. Briefly, the fresh bacterial suspension was adjusted to a McF standard equivalent of 0.5 (~1.5 × 10^8 CFU/mL) and then 100-fold diluted with MH broth. Fifty microliters of bacterial suspension with equal volume of serially diluted compounds (1-128 µg/mL) were added into a 96-well cell plate (Corning Costar, the United States) and incubated at 37°C for 16-18 h. The bacterial suspension without compounds was used as a negative control. The lowest concentration that inhibited visible bacterial growth was considered as the value of MIC.

[4] = test system: S. aureus ATCC 43300; test: One-step resistance assay (spontaneous resistance frequency); format: cell-based; conditions: 1◊MIC
Method: Resistance inducing assay. Consecutive and one-step resistance experiments were performed to assess the resistance-inducing ability of the compounds against S. aureus. For consecutive resistance assay, the MICs of compounds and ciprofloxacin (CIP) were determined on the first day. […] Subsequently, the equal volume of bacterial suspension was added to the serial concentrations of compounds or CIP into a 96-well plate, the new MICs were recorded every 24h for a total of 15 days. After 15 days of passages, the CIP-induced resistant S. aureus strains were obtained. And the antimicrobial activity of the compounds against the CIP-induced strains were assessed by microdilution assay as described above. For one-step resistance assay, overnight cultured S. aureus was adjusted to a final concentration of approximately OD630=0.5 with sterile saline. One hundred microliters of the bacterial suspension were uniformly spread in pre-prepared MH agar plates containing a specific concentration of compounds. Rifampicin (RFP) was used as a positive control. The viable cells were counted on the plates after incubation at 37°C for 48h. The frequency of spontaneous drug resistance mutation was defined as the ratio of the number of resistant CFU counts to the initial CFU counts^3.

What does the source list for CC1(C)S[C@@H]2[C@H](NC(=O)[C@H](N)c3ccccc3)C(=O)N2[C@H]1C(=O)O [AMP, ampicillin, reference compound]?
bacterial loads in organs [1]: no statistical difference; bacterial loads in the joint and its surrounding tissue [2]: reduce the bacterial loads

How did the “antimicrobial activity (in words)” value [3] turn out when Cc1ccc(CNC(=O)c2c[nH]n3c(=O)c(Cc4ccc(Cl)cc4)c(C)nc23)cc1 [C218-0468] was run?
The value was “did not optimize the MIC values”.

CCCCCCCCCC(=O)N[C@@H](Cc1c[nH]c2ccccc12)C(=O)N[C@H](CC(N)=O)C(=O)N[C@@H](CC(=O)O)C(=O)N[C@@H]1C(=O)NCC(=O)N[C@@H](CCCN)C(=O)N[C@@H](CC(=O)O)C(=O)N[C@H](C)C(=O)N[C@@H](CC(=O)O)C(=O)NCC(=O)N[C@H](CO)C(=O)N[C@@H]([C@H](C)CC(=O)O)C(=O)N[C@@H](CC(=O)c2ccccc2N)C(=O)O[C@@H]1C [DAP, daptomycin] was tested. Which MIC ([3]; ATCC 25923) did it give?
The MIC was 1 mg/L (≈ 0.617 µM).

And the MIC ([3]; ATCC 43300)?
Its MIC is 1 mg/L (≈ 0.617 µM).

And the MIC ([3]; LZB1)?
The MIC was 1 mg/L (≈ 0.617 µM).

And the MIC ([3]; Newman)?
Its MIC is 2 mg/L (≈ 1.23 µM).

What about the MIC ([3]; R0645) of the same compound?
The MIC was 2 mg/L (≈ 1.23 µM).

And the MIC ([3]; R82174)?
Its MIC is 2 mg/L (≈ 1.23 µM).

And the MIC ([3]; SA1901)?
Its MIC is 1 mg/L (≈ 0.617 µM).

And the MIC ([3]; SA1902)?
The MIC was 1 mg/L (≈ 0.617 µM).

What about the MIC ([3]; SA1909) of the same compound?
Its MIC is 1 mg/L (≈ 0.617 µM).

And the MIC ([3]; SA1910)?
Its MIC is 1 mg/L (≈ 0.617 µM).

And the MIC ([3]; SA1911)?
Its MIC is 2 mg/L (≈ 1.23 µM).

What about the MIC ([3]; SA1912) of the same compound?
Its MIC is 1 mg/L (≈ 0.617 µM).

And the MIC ([3]; SA1913)?
Its MIC is 1 mg/L (≈ 0.617 µM).

And the MIC ([3]; SA1914)?
Its MIC is 2 mg/L (≈ 1.23 µM).

What about the MIC ([3]; SA1915) of the same compound?
The MIC was 1 mg/L (≈ 0.617 µM).

And the MIC ([3]; SAJ1 (VISA))?
Its MIC is 32 mg/L (≈ 19.7 µM).

And the MIC ([3]; USA300)?
The MIC was 1 mg/L (≈ 0.617 µM).

With CO[C@H]1/C=C/O[C@@]2(C)Oc3c(C)c(O)c4c(O)c(c(/C=N/N5CCN(C)CC5)c(O)c4c3C2=O)NC(=O)/C(C)=C\C=C\[C@H](C)[C@H](O)[C@@H](C)[C@@H](O)[C@@H](C)[C@H](OC(C)=O)[C@@H]1C [RFP, Rifampicin] as the compound, how does the “Spontaneous resistance frequency (mean±SD)” value [4] read?
Its value is “(2.83±2.9) ×10^-7”.

Cc1nc2c(C#N)c[nH]n2c(=O)c1Cc1ccccc1 [STK584829] was tested. Which “antimicrobial activity (in words)” value [3] did it give?
The value was “vanished antimicrobial activity”.

Which “antimicrobial activity (in words)” value [3] does the source give for Cc1nc2oc3ccccc3c(=O)c2c2nc3ccccc3n12 [STK585953] here?
Its value is “reduce the antimicrobial ability”.

For CN[C@H](CC(C)C)C(=O)N[C@H]1C(=O)N[C@@H](CC(N)=O)C(=O)N[C@H]2C(=O)N[C@H]3C(=O)N[C@H](C(=O)N[C@H](C(=O)O)c4cc(O)cc(O)c4-c4cc3ccc4O)[C@H](O)c3ccc(c(Cl)c3)Oc3cc2cc(c3O[C@@H]2O[C@H](CO)[C@@H](O)[C@H](O)[C@H]2O[C@H]2C[C@](C)(N)[C@H](O)[C@H](C)O2)Oc2ccc(cc2Cl)[C@H]1O [VAN, vancomycin], which MIC ([3]; ATCC 25923) is on record?
The MIC was 1 mg/L (≈ 0.69 µM).

What about the MIC ([3]; ATCC 43300) of the same compound?
Its MIC is 1 mg/L (≈ 0.69 µM).

What about the MIC ([3]; LZB1) of the same compound?
Its MIC is 1 mg/L (≈ 0.69 µM).

And the MIC ([3]; Newman)?
Its MIC is 2 mg/L (≈ 1.38 µM).

What about the MIC ([3]; R0645) of the same compound?
The MIC was 1 mg/L (≈ 0.69 µM).

And the MIC ([3]; R82174)?
The MIC was 1 mg/L (≈ 0.69 µM).

And the MIC ([3]; SA1901)?
Its MIC is 1 mg/L (≈ 0.69 µM).

And the MIC ([3]; SA1902)?
Its MIC is 0.5 mg/L (≈ 0.345 µM).

And the MIC ([3]; SA1909)?
The MIC was 1 mg/L (≈ 0.69 µM).

What about the MIC ([3]; SA1910) of the same compound?
Its MIC is 1 mg/L (≈ 0.69 µM).

And the MIC ([3]; SA1911)?
The MIC was 1 mg/L (≈ 0.69 µM).

And the MIC ([3]; SA1912)?
Its MIC is 1 mg/L (≈ 0.69 µM).

What about the MIC ([3]; SA1913) of the same compound?
The MIC was 1 mg/L (≈ 0.69 µM).

And the MIC ([3]; SA1914)?
Its MIC is 1 mg/L (≈ 0.69 µM).

And the MIC ([3]; SA1915)?
The MIC was 1 mg/L (≈ 0.69 µM).

What about the MIC ([3]; SAJ1 (VISA)) of the same compound?
The MIC was 4 mg/L (≈ 2.76 µM).

What about the MIC ([3]; USA300) of the same compound?
Its MIC is 1 mg/L (≈ 0.69 µM).
